Measured values from patent US9981972B2, “N-hydroxy bicyclic hydantoin carbamates as tools for identification of serine hydrolase targets” (ABIDE THERAPEUTICS, INC., priority 2014, dated 2018).

Columns and labels:
[1] = biological target: T1, FAAH (Mus musculus, UniProt O08914); assay: Gel-based competitive ABPP in vitro, mouse brain membrane proteome; assay type: biochemical; settings: 10 μM, mouse brain (mem) proteome
T1 construct: from tissue; host or cells: mouse brain, membrane fraction
T1 sequence (O08914 1-579): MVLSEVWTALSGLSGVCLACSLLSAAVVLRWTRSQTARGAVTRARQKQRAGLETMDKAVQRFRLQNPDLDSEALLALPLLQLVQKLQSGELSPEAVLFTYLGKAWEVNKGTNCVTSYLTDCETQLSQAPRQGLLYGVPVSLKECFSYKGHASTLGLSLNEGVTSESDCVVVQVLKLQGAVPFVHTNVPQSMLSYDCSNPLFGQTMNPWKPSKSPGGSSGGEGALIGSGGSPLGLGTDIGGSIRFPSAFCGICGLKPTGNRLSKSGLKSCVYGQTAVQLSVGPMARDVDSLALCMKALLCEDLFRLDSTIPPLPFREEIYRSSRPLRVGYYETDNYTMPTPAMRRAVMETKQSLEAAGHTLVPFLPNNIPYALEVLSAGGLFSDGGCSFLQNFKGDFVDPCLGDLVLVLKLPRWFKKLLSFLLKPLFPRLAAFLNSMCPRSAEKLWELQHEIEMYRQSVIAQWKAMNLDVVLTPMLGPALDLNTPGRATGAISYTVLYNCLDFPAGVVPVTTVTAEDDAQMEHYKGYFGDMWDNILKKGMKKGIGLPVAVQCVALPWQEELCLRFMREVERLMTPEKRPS
Description: (§1) Assay Overview: The purpose of this assay was to determine whether test compounds can inhibit LYPLA1 and LYPLA2 in a complex proteomic lysate and to assess anti-target inhibition using a competitive activity-based proteomic profiling (ABPP) assay. In this assay, a complex proteome endogenously expressing LYPLA1/2 was incubated with test compound followed by reaction with a rhodamine-conjugated fluorophosphonate (FP-Rh) serine-hydrolase specific activity-based probe. The reaction products were separated by SDS-PAGE and visualized in-gel using a flatbed fluorescence scanner. The percentage activity remaining was determined by measuring the integrated optical density of the bands. […] Percent inhibition was calculated relative to a DMSO (no compound) control.
(§2) Protocol Summary: Mouse brain membrane proteome (50 μL reaction volume, 1 mg/mL in DPBS) was treated with 0.1-100 μM test compound (1 μL of a 50× stock in DMSO) for 30 minutes at 37° C. FP-Rh (1 μL of 50× stock in DMSO, Thermo #88318) was added to a final concentration of 2 μM. The reactions were incubated for 30 minutes at 25° C., quenched with 16 μL 4×SDS-PAGE loading buffer (reducing), separated by SDS-PAGE and visualized by in-gel fluorescent scanning. The percentage activity remaining was determined by measuring the integrated optical density of the bands relative to a DMSO-only (no compound) control. Assay Cutoff: Compounds with ≥50% inhibition of targets at 1 μM test compound concentration were considered active.
(§3) Assay Overview: The purpose of this assay was to determine IC50 values of powder samples of test compounds for enzyme of interest activity, and anti-targets in a complex proteomic lysate using a gel-based competitive ABPP assay. In this assay, a complex proteome was incubated with test compound followed by reaction with FP-Rh and SDS-PAGE analysis as described above.
(§4) Protocol Summary: Soluble HeLa cell proteome (50 μL reaction volume, 1 mg/mL in DPBS) or mouse brain membrane proteome (50 μL reaction volume, 1 mg/mL in DPBS) was treated with varying concentrations of test compound (1 μL of a 50× stock in DMSO) for 30 minutes at 37° C. FP-Rh (1 μL of 50× stock in DMSO) was added to a final concentration of 2 μM. The reaction was incubated for 30 minutes at 25° C., quenched with 16 μL 4×SDS-PAGE loading buffer (reducing), separated by SDS-PAGE and visualized by in-gel fluorescent scanning. The percentage activity remaining was determined by measuring the integrated optical density of the enzymes of interest, and anti-target bands relative to a DMSO-only (no compound) control. IC50 values were determined from dose-response curves from three replicates at each inhibitor concentration: 1, 10, 100, 1000, 10000 nM and 0.01, 0.1, 1, 10, 100, 1000, 10000, 50000, and 100000 nM.

[2] = biological target: T2, ABHD6 (Mus musculus, UniProt Q8R2Y0); assay: as above; assay type: biochemical; settings: 1 μM, mouse brain (mem) proteome
T2 construct: from tissue; host or cells: mouse brain, membrane fraction
T2 sequence (Q8R2Y0 1-336): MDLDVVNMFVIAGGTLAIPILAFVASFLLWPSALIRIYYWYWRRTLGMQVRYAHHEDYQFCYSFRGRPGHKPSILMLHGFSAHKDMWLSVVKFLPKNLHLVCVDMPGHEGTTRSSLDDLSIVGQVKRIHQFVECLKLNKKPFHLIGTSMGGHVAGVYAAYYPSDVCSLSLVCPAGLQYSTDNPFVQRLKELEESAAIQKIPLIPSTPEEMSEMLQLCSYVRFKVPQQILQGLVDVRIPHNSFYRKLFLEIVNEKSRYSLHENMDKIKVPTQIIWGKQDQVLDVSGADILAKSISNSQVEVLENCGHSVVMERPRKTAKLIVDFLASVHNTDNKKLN
Description: as §1, §2, §3, §4

C#Cc1ccc(CCC2CCN(C(=O)ON3C(=O)C4CN(C(=O)N5CCOCC5)CCN4C3=O)CC2)cc1 (centres unmarked) [Compound 53, 7-(morpholine-4-carbonyl)-1,3-dioxo-hexahydroimidazo[1,5-a]pyrazin-2(3H)-yl 4-(4-ethynylphenethyl)piperidine-1-carboxylate]
FAAH in vitro enzyme activity, % @ 10 μM [1]: 50% @ | ABHD6 in vitro enzyme activity, % @ 1 μM [2]: 100% @
